We go through seven substances from patent US8637470B2, “Small humanin-like peptides” (The Regents of the University of California, priority 2008, dated 2014).

Data set [1] concerns Mouse primary cortical neurons. Nature of the data set: Protection of primary cortical neurons from Aβ-induced cell death (Calcein-AM). Type of data set: cell-based. The following applies: 72 h. The protocol: SHLPs protect neurons from Aβ-induced apoptosis. When it was first discovered, HN was described as a potent neural survival factor with clinical implications as a therapeutic agent against neurodegenerative diseases such as Alzheimer's Disease. Since many of the SHLPs appear to be functionally related to HN, SHLPs were tested as potential neuroprotective factors. Mouse primary cortical neurons were incubated with 25 μM Aβ1-43 in the presence or absence of 100 nM SHLP2 or 3, HNG (positive control) or 1 nM colivelin (positive control). After 72 h, neuronal viability was assessed by Calcein-AM staining followed by fluorescence microscopy (FIG. 13).

For another data set, the system named is S. cerevisiae. Nature of the data set: Yeast heat shock survival. Particulars: 10 μM peptide, 90° heat shock. Type of data set: cell-based. The protocol: SHLPs enhance stress resistance in yeast. The ability of SHLPs to enhance stress resistance in yeast was tested. The ability of yeast to survive heat shock after being treated with different peptides is a commonly used method to test the ability of peptides to enhance yeast survival.

Data set [2] concerns Mouse NIT-1 insulinoma β-cells. Put plainly: Apoptosis ELISA (fragmentation of histone-associated DNA) in NIT-1 cells. Type of data set: cell-based. The following applies: NIT-1, serum starved 24 h, then 24 h with 100 nM peptide. The protocol:
(§1) SHLPs are anti-apoptotic in 22RV1 prostate cancer cells and NIT-1 β-cells. […] Mouse NIT-1 insulinoma β-cells and 22RV1 human prostate cancer cells were serum starved for 24 h, followed by 24 h incubation with 100 nM scrambled control peptide, HN or SHLPs. Apoptosis was assessed and quantified by ELISA for fragmentation of histone-associated DNA.
(§2) ERK activation is necessary for SHLP-induced inhibition of apoptosis in NIT-1 and 22RV1 cells. To determine the significance of ERK activation for apoptosis inhibition by SHLPs 2 and 3, PD98059 (PD), a specific chemical inhibitor of ERK1/2, was utilized. 22RV1 and NIT-1 cells were serum starved for 24 h in the presence or absence of 25 μM PD or 1 μM wortmannin (PI3-kinase inhibitor; negative control), followed by 24 h incubation with […] scrambled control peptide, SHLP2 or SHLP3. Apoptosis was then assessed by ELISA for fragmentation of histone-associated DNA.
Role of IGFBP-3 in effects of SHLPs on cell survival. Since IGFBP-3 is an important regulator of HN action, IGFBP-3 was tested for a possible role in regulating the anti- or pro-apoptotic actions of SHLPs. NIT-1 cells were incubated with 1 μg/ml IGFBP-3±0, 10, 100 or 1000 nM SHLP2 or 3 for 24 h. Apoptosis induction was assessed by ELISA for fragmentation of histone-associated DNA.
Co-incubation of SHLPs. To evaluate therapeutic uses involving co-treatment with SHLPs, the effect of HN±SHLPs on apoptosis was tested in both 22RV1 and NIT-1 cells. Cells were incubated in SF media for 24 h followed by 24 h with 100 nM HN, SHLP or peptide combination. Apoptosis was assessed by ELISA for fragmentation of histone-associated DNA. Cells were treated with all possible double peptide combinations. Although many peptide combinations had no additive or combined effects compared with the actions of the peptides individually, co-treatment with certain combinations led to unexpected functional changes (FIG. 11). […] Thus, specific SHLPs may either act on complementary pathways, or interact with each other, leading to change of function of one or both peptides. When the same experiments were repeated in NIT-1 cells, similar, but different, change of function effects were observed (FIG. 11B).

A further data set addresses biotinylated-HN (Homo sapiens, UniProt Q8IVG9). Put plainly: Dot-blot binding to biotinylated-HN. Particulars: 2, 5 or 10 nmol peptide dotted on nitrocellulose. The procedure: To test a dimerization hypothesis, we performed a dot-blot using biotinylated-HN. Two, 5 or 10 nmol IGF-I (negative control), HN (positive control) or SHLP peptide were dotted on to nitrocellulose membrane, and their ability to bind to biotinylated-HN was assessed immunologically. […] Specific interactions that occur may be determined using, e.g., dot blots with biotinylated SHLPs, and/or antibodies against specific SHLPs.

The test system of data set [3] is 22RV1 human prostate cancer cells. Put plainly: Cell proliferation (cell number by MTT/MTS cleavage) in 22RV1 cells. Type of data set: cell-based. Particulars: 22RV1, 100 nM peptide, 72 h. The procedure:
(§3) SHLPs exert distinct effects on cell proliferation. Whether SHLPs have the capacity to influence cell proliferation, in addition to their intrinsic effects on apoptosis induction, was also investigated. Mouse NIT-1 insulinoma β-cells and 22RV1 human prostate cancer cells were serum starved for 24 h, followed by 72 h incubation with 100 nM scrambled control peptide, HN or SHLPs. Cell number, as a measure of cell proliferation, was assessed by cleavage of MTT substrate.
Pro-apoptotic effect on human prostate cancer cells in vitro. To assess the ability of SHLP6 to induce apoptosis in human prostate cancer cells, PC-3, 22RV1 or DU145 cells were incubated in serum free (SF) media for 24 h followed by 24 h incubation with 1 μM scrambled (control) peptide or SHLP6. Apoptosis was assessed by ELISA for fragmentation of histone-associated DNA. In each cell line tested, SHLP6 induced apoptosis by at least 2-fold (FIG. 2), confirming highly significant physiological effects of this novel peptide. To determine whether the effects of SHLP6 were specific to induction of apoptosis, or if it also elicited growth-inhibitory effects, PC-3, DU-145, 22RV1, LAPC4 and LNCaP cells were incubated in SF media for 24 h followed by 72 h incubation with 1 μM SHLP6. Cell number, as a measure of cell proliferation, was assessed by cleavage of MTS substrate.

The subject of data set [4] is Mouse NIT-1 insulinoma β-cells. Nature of the data set: Cell proliferation (cell number by MTT/MTS cleavage) in NIT-1 cells. Format: cell-based. The following applies: NIT-1, 100 nM peptide, 72 h. The procedure:
as §3

The subject of another data set is ERK. Nature of the data set: ERK activation in 22RV1 cells (immunoblotting, ELISA). The following applies: 22RV1, 100 nM. Format: cell-based, human. The protocol:
Characterization of the intracellular signaling pathways activated by SHLPs. To determine a mechanism for the growth and apoptosis effects of SHLPs, SHLPs were tested for the ability to modulate activation of intracellular signaling pathways. 22RV1 cells in SF media were treated with 100 nM SHLP 1-5 and whole cell extracts were harvested after 15 min, 30 min, 2 h, 4 h, 8 h and 24 h. Proteins were separated by SDS-PAGE and analyzed by immunoblotting.
To test the hypothesis that SHLPs may act in concert to regulate intracellular signaling, 22RV1 cells were co-treated with SHLPs 2 and 3, and ERK activation was assessed.
Since HN causes activation of STAT3, SHLPs 2 and 3 were also tested for effects on STAT3. […] To more accurately quantify the ERK phosphorylation caused by SHLPs 2 and 3, we repeated the experiment as described above but used a commercially available ERK ELISA to assess ERK phosphorylation. Optimal ERK activation by SHLP2 was 9-fold after 24 h, whilst optimal activation by SHLP3 was 12-fold after 2 h (FIG. 5).

The test system of data set [5] is 22RV1 human prostate cancer cells. Nature of the data set: Apoptosis ELISA (fragmentation of histone-associated DNA) in 22RV1 cells. Format: cell-based. The following applies: 22RV1, serum starved 24 h, then 24 h with 100 nM peptide. The procedure: as §1, §2
STAT3 Activation is also necessary for SHLP-induced cell survival in 22RV1 cells. Since SHLPs 2 and 3 both stimulate STAT3 phosphorylation in addition to ERK activation, the hypothesis that STAT3 activation occurs downstream of ERK1/2 was tested using a specific chemical inhibitor against STAT3, stattic. 22RV1 cells were incubated for 24 h in SF media in the presence or absence of 20 μM stattic followed by 24 h incubation with 100 nM scrambled control peptide, SHLP2 or SHLP3. Apoptosis was assessed by ELISA for fragmentation of histone-associated DNA. […]

Data set [6] has as its system 22RV1 prostate cancer xenografts. The following applies: mouse, in vivo, ip, 4 mg/kg/day. The protocol: Inhibition of 22RV1 xenograft tumor growth and angiogenesis in vivo. In light of the pro-apoptotic actions of SHLP6 in vitro and the association of many cancers with mitochondrial dysfunction, the effect of SHLP6 on tumor growth was investigated in vivo. SCID mice harboring 22RV1 prostate cancer xenografts were treated with 4 mg/kg/day SHLP6 or scrambled control peptide by daily i.p. injection for 7 days.
To assess the mechanism underlying the reduction in tumor growth, tumor apoptosis (TUNEL), angiogenesis (VEGF) and tumor cell proliferation (PCNA; not shown) were assessed by IHC (FIG. 19). […] SHLP6 therefore has great potential as an anti-cancer agent.

“Also recorded” adds a separate entry of the source. Where no end group is shown, it is not given here.

As for “HNG: HNG (S14G), hyper-potent HN analog (MAPRGFSCLLLLTGEIDLPVKRRA; Humanin; UniProt Q8IVG9 1-24, looked up, variant S14G) [reference compound]”, the “Neuronal viability against Aβ-induced cell death” value in [1] (25 μM Aβ1-43, 100 nM peptide) was “inhibited”.
Consider “MAPRGFSCLLLLTSEIDLPVKRRA [HN, reference compound]”, for which the “Yeast survival of heat shock” value in the data set with S. cerevisiae is listed as “allowed the yeast to withstand 90° heat shock”. The “Apoptosis (fragmentation of histone-associated DNA)” value (from here on “Apoptosis”) in data set [2] is “anti-apoptotic effects”. Further, in the data set with biotinylated-HN, the “Binding to biotinylated-HN (dot-blot)” value was “dimerize/multimerize with itself”.
As to “MCHWAGGASNTGDARGDVFGKQAG [SHLP1, small humanin-like peptide, mtDNA 2490-2561]”, the “Cell number as a measure of cell proliferation” value (shortened to “Cell number as a measure”) in [3] and in data set [4] was “slightly stimulated the proliferation” in each case. For the same substance, the “Duration of sustained ERK phosphorylation” value in the data set with ERK is given as “approximately 8 h”. In addition, the “Increase in ERK phosphorylation (immunoblotting)” value in the data set on ERK (within 30 min) stood at 5 fold. Moreover, the “Apoptosis” value in [5] was “minimal effect”. Besides, the “Binding to biotinylated-HN (dot-blot)” value with biotinylated-HN is “no interaction”.
MLDQDIPMVQPLLKVRLFND [SHLP6]: the Signs of toxicity result in [6] is listed as “no detectable signs of toxicity”.
Turning to “MLEVMFLVNRRGKICRVPFTFFNLSL [SHLP4, small humanin-like peptide, mtDNA 2446-2524]”, the “Cell number as a measure” value in data set [3] and in data set [4] was “slightly stimulated the proliferation” throughout. In addition, the “Apoptosis” value in data set [2] is recorded as “anti-apoptotic effects”; in [5] it was “minimal effect”. For the same substance, the “Binding to biotinylated-HN (dot-blot)” value with biotinylated-HN was “very strong interactions; also recorded: binds”.
For the substance “MYCSEVGFCSEVAPTEIFNAGLVV [SHLP5, small humanin-like peptide, mtDNA 2785-2856]”, the “Cell number as a measure” value in [3] and in data set [4] was “slightly stimulated the proliferation” in each case. Further, in the data set with ERK (15 min to 24 h), the “ERK activation profile (immunoblotting)” value is listed as “no observable effect”. Besides, the “Apoptosis” value in data set [5] is listed as “minimal effect”.
Consider colivelin [reference compound], for which the “Neuronal viability against Aβ-induced cell death” value in data set [1] (25 μM Aβ1-43, 1 nM colivelin) is “inhibited”.
